Data: PMC11451635, “A Broad Spectrum Lasso Peptide Antibiotic Targeting the Bacterial Ribosome” (Research Square, 2024)
In brackets after ≈: the same amount, converted by molar mass. Entries after “also recorded” stand apart in the source; their conditions may differ. Where a SMILES comes first, the peptide text is derived from it. Bridges are numbered along the chain shown (N, C = ends).

Columns and labels:
Bacillus subtilis 168 = assay type: cell-based
bacteria (Table 1) = assay: MIC in nutrient-limited media; assay type: cell-based; settings: nutrient-limited media vs MHB
Experimental: MICs were determined using broth microdilution method in cation-adjusted Mueller-Hinton Broth (MHBII, BD Difco) following standard procedures unless stated otherwise. Mycobacteria susceptibility was tested in Middlebrook 7H9 medium supplemented with 10% OADC Enrichment (oleic acid, bovine albumin, dextrose, and catalase) (BD Difco). The compounds (2 to 4 μl) were mixed with diluted cultures (5–7 × 10^5 cfu/mL) in MHB (196 to 198 μL) in 96-well round-bottom plates, and 2-fold serial dilutions were made. Plates were incubated at 37°C for 18–22 h, and OD600 readings were taken on Synergy Microplate Reader (Biotek). MIC was determined to be the lowest concentration of antibiotics with no visible growth. For Mycobacterial cultures, the plates were read after two to three days. Susceptibility was also assessed in MOPS minimal medium with 0.4% glucose (M2106 Teknova) and RPMI-1640 medium. Serum effects were tested in MHB with 10% or 50% fetal bovine serum (Invitrogen) or human serum (Heat Inactivated, from human male AB plasma; Sigma-Aldrich). For anaerobic conditions, E. coli was incubated in BD GasPak™ EZ pouch systems. To adjust the pH of the media, 1M NaOH or 1N HCl was used.

E. coli BW25113 [1] = assay: Cell lysis assay (optical density); assay type: cell-based, Escherichia coli; settings: exponential E. coli culture, OD600 over 6 h
Experimental: (§1) E. coli BW25113 was grown overnight in 5 ml MOPS minimal medium and diluted 1:100 in 3 ml of fresh medium in 14 ml culture tubes. Cells were grown for three to four hours to reach mid-exponential phase (OD600 0.4–0.6) and treated with 10xMIC of LAR (40 μg/ml) or colistin (2.5 to 5 μg/ml) in 1 ml culture at 37°C with agitation at 250 rpm. Cultures were sampled at various times, centrifuged at 10,000 xg for 3 min, and plated on MHA plates. The number of colony forming units (cfu) was determined after incubating plates for 20–24 hr at 37°C. A time-kill assay against A. baumannii C0286 was performed in MHB. For cell lysis assay, cultures were prepared as described above. Initial OD600 was adjusted to 0.15–0.2, and 98 μl of culture was added to a 96-well plate containing 2 μl of compound. The plates were incubated with orbital shaking at maximum speed with a Synergy Microplate Reader (Biotek), and OD600 was measured over 6 h. Experiments were performed in two to three biological replicates. For colistin in cell lysis assay, clumping of cells was observed after ≈2h, leading to a false increase in OD; therefore, data for colistin was not plotted after this period. The plate was manually mixed on a vortex, and the turbidity of colistin-treated wells was confirmed.

[2] = test system: E. coli cell-free transcription-translation system (gfp mRNA); assay: In vitro translation, GFP mRNA
E. coli BW25113 membrane = assay: Membrane depolarization assay; assay type: cell-based, Escherichia coli; settings: DiOC2(3) 30 μM, 60 min, room temperature, fluorescence
Experimental: Mid-exponential phase E. coli BW25113 culture (OD600 0.3–0.5) was mixed with […] (DiOC2(3), ThermoFisher Scienti c) dye at a nal concentration of 30 μM and 190 μL of cells were placed into wells of a 96-well black plate. A volume of 10 μl of test compounds or DMSO was added, mixed by pipetting, and fluorescence was measured for 60 min at room temperature using a Synergy Microplate Reader (Biotek) (lex/lem: 450/670 nm). Carbonyl cyanide m-chlorophenyl hydrazone (CCCP) served as a positive control.

E. coli BW25113 [3] = assay: Time-dependent killing; assay type: cell-based, Escherichia coli; settings: 10xMIC (40 μg/ml), MOPS minimal medium, 37°C
Experimental: as §1

HEK293 cells = assay: Cytotoxicity against human cells
[4] = test system: rabbit reticulocyte lysate (luc mRNA); assay: In vitro translation in rabbit reticulocyte lysate; assay type: biochemical
Experimental: The effect of LAR on eukaryotic translation was assessed using Rabbit Reticulocyte Lysate System (L4960, Promega) programmed with firefly luciferase mRNA. In vitro reactions were assembled according to the manufacturer’s protocol in a nal volume of 10 μL supplemented with 0.02–50 μM of LAR or no antibiotic and incubated for 90 min at 30°C. After that, 2.5 μL from each reaction was mixed with 50 μl of prewarmed luciferase assay reagent, and the luminescence was measured in Infinite M200 PRO plate reader (TECAN) for 10 min at 25°C. The assay was performed in triplicate.

E. coli SQ110DTC = assay: Selection of spontaneous rRNA resistant mutants
[5] = test system: Clostridium perfringens GC1584; settings: column MHB; method: BHI + L-cysteine, hemin, vitamin K, anaerobic, 37 °C

CC(C)[C@H](NC(=O)CNC(=O)[C@H](CCCNC(=N)N)NC(=O)CNC(=O)[C@H](Cc1ccccc1)NC(=O)[C@H](CCCCN)NC(=O)CNC(=O)[C@@H]1CC(=O)N[C@@H](CO)C(=O)N[C@@H](CCCCN)C(=O)N[C@@H](CCCCN)C(=O)N[C@@H](CO)C(=O)N[C@@H](CCCCN)C(=O)N2CCC[C@H]2C(=O)NCC(=O)N1)C(=O)N[C@@H](CCCCN)C(=O)N[C@@H](CCCNC(=N)N)C(=O)NCC(=O)O [LAR, lariocidin] (SKKSKPGDGKFGRGVKRG-OH; lactam N-8)
MIC (text) (Bacillus subtilis 168): 1 µg/mL (≈ 0.534 µM) | MIC reduction in nutrient-limited media (bacteria (Table 1)): ≤ 128 fold | Effect on culture optical density (lysis) (E. coli BW25113 [1]): did not cause a decrease in the optical density of the culture below the initial point | IC50 class in words, bacterial translation ([2]; E. coli in vitro transcription-translation system, DNA or RNA): submicromolar | IC50 ([2]; read-out: IC50, protein synthesis, gfp mRNA, E. coli cell-free system, real-time sfGFP fluorescence, 1 h, mean of three experiments): 0.24 µM | Membrane depolarization (E. coli BW25113 membrane): did not permeabilize or depolarize the bacterial membrane | Viable cell count / bactericidal activity (E. coli BW25113 [3]): dramatically reduced the viable cell count; also recorded: exhibits bactericidal activity | Cytotoxicity against human cells (HEK293 cells): no human cell toxicity; also recorded: did not display hemolytic activity or cytotoxicity against human cells | Effect on eukaryotic translation [4]: only a marginal effect on eukaryotic translation | IC50 ([4]; luc mRNA, 0.02–50 μM LAR, 90 min, 30°C, luminescence, mean of three experiments, read-out: IC50, protein biosynthesis): 14.2 µM | IC50 in mammalian cell-free translation vs bacterial ([4]; ratio to E. coli system IC50): ~ 58 fold | Effect of selected rRNA substitutions on MIC (E. coli SQ110DTC; 16S rRNA resistance mutations, Extended Data Fig. 6a): modest effects | Frequency of resistant clones (E. coli SQ110DTC; MHB/agar, 64 μg/mL LAR (~4xMIC), 48 h, 37°C): ~ 2×10^−8 | MIC [5]: >256 µg/mL
